In paper PMC7534330, “UHPLC-MS/MS method for pharmacokinetic and bioavailability determination of five bioactive components in raw and various processed products of Polygala tenuifolia in rat plasma” (Pharmaceutical Biology, 2020):
Where two headings read alike, the source gives them in different places.

Assay: Pharmacokinetics of five components in rat plasma after oral administration of RPT, LPT and HPT extracts (UHPLC-MS/MS)
Conditions: male, SD, in vivo, 1.9 g/kg, rat plasma, mean ± SD; for AUC(0-t): n = 6, read-out: AUC0-t; for AUC(0-inf): n = 6, read-out: AUC0-∞; for Cmax: n = 6, read-out: Cmax; for MRT last: n = 6, read-out: MRT0-t; for Tmax: n = 6, read-out: Tmax; for half-life: n = 6, read-out: t1/2 (converted)
Procedure: A Thermo Hypersil Gold C18 column (3.0 × 100 mm, i.d.; 3 μm) was used for chromatographic separation. An aqueous 10 mM ammonium acetate solution (A) and acetonitrile (B) were selected as the mobile phase components. The optimal gradient program involved the following steps: 5% B (0–1 min), changing to 85% B (1–3.5 min), 85% B (3.5–4.0 min), changing to 5% B (4.0–4.1 min) and 5% B (4.1–5.0 min). The flow rate was set to 0.4 mL/min, the autosampler was maintained at 4 °C and the injection volume was 5 μL.
UHPLC-MS/MS was conducted by an Applied Biosystems (AB) Sciex Exion LC system (Foster City, CA) connected to a 6500 + triple quad tandem mass spectrometer with an electrospray ionization source. All detection and quantifications were carried out in positive multiple reaction monitoring (MRM) mode. The optimized parameters were programmed as follows: ion source temperature, 500 °C; curtain gas pressure, 30 kPa; ion source gas 1 pressure, 55 kPa; ion source gas 2 pressure, 55 kPa; and ion spray voltage, […]. The chemical structures and ion mass spectra of targeted compounds are shown in Figure 1. The precursor ion and product ion were m/z 517.1 → 174.9 for A5, m/z 547.0 → 204.9 for A6, m/z 753.2 → 205.2 for DSS, m/z 681.3 → 443.3 for TFSA, m/z 236.8 → 103.2 for TMCA and m/z 136.9 → 92.9 for IS. All data were acquired by using AB Sciex Analyst software (version 1.6.3).
After thawing the frozen blood samples at room temperature, a 100 μL aliquot of plasma was spiked with 50 μL of the IS working solution in 2 mL EP tubes, and 750 μL of methanol was added into each of the tubes. Then, these tubes were mixed on a multi-tube Vortexer for 0.5 min before centrifugation at 11,800×g for 10 min. Finally, 200 μL of the obtained supernatant was transferred to a fresh autosampler vial, and then 5 μL of the sample was injected for analysis.
Male SD rats were randomly divided into four groups (n = 6 in each group), including the RPT group, LPT group, HPT group and control group. All oral administration samples were mixed with 0.5% CMC-Na (w/v) and then given to rats at a dose equivalent to 1.9 g/kg of RPT extract. The control group was orally treatment with equal volume of 0.5% CMC-Na solution. After a single administration, all blood samples were collected from the orbital vein into heparinized centrifuge tubes before administration (0 h) and at 0.083, 0.17, 0.25, 0.5, 0.75, 1, 1.5, 2, 3, 5, 8 and 12 h after administration and then centrifuged at 4 °C and 11,800×g for 10 min. The separated supernatant samples were preserved at −80 °C until they were measured.
The elementary pharmacokinetic parameters of plasma samples were analyzed by DAS 2.0 pharmacokinetic software. One-way analysis of variance (ANOVA) was used for statistical comparison for pharmacokinetic and interaction studies. A p-value < 0.05 indicated a significant difference. The main parameters considered were as follows: AUC0–∞ (the area under the blood concentration-time curve from zero to infinity initial plasma concentration), MRT (the mean residence time), Cmax (peak plasma concentration) and Tmax (time to reach Cmax for oral dose), t1/2 (elimination half-life) (He et al. [2015]). The absolute bioavailability (F) was evaluated as follows: F(%)=(AUCoral×Dosei.v.)/(AUCi.v.×Doseoral)×100%

[1] = oral HPT extract equivalent to 1.9 g/kg of RPT extract
[2] = oral LPT extract equivalent to 1.9 g/kg of RPT extract

COc1cc(C=CC(=O)O)cc(OC)c1OC [TMCA, 3,4,5-trimethoxycinnamic acid]
AUC(0-t) [1]: 124 ± 41.3 ng·h/mL | AUC(0-inf) [1]: 184 ± 137 ng·h/mL | Cmax [1]: 63.2 ± 14.2 ng/mL | MRT last [1]: 4.19 ± 0.91 h | Tmax [1]: 4.2 ± 1.2 min | half-life [1]: 3.73 ± 2.34 h | AUC(0-t) [2]: 135 ± 33.4 ng·h/mL | AUC(0-inf) [2]: 173 ± 40.4 ng·h/mL | Cmax [2]: 80.7 ± 11.1 ng/mL | MRT last [2]: 3.56 ± 0.25 h | Tmax [2]: 6 ± 2.4 min | half-life [2]: 6.82 ± 1.82 h | AUC(0-t) (oral RPT extract 1.9 g/kg): 91.7 ± 29.1 ng·h/mL | AUC(0-inf) (oral RPT extract 1.9 g/kg): 132 ± 33.4 ng·h/mL | Cmax (oral RPT extract 1.9 g/kg): 38.8 ± 13.8 ng/mL | MRT last (oral RPT extract 1.9 g/kg): 4.37 ± 0.53 h | Tmax (oral RPT extract 1.9 g/kg): 7.8 ± 3 min | half-life (oral RPT extract 1.9 g/kg): 6.93 ± 2.96 h
